Literature values as cited in patent US20120315337A1, “MULTIPARTICULATE 5-HTP COMPOSITIONS AND RELATED METHODS” (priority 2011, published 2012).

Details: comparison of antidepressant drug fluoxamine with 5-HTP; background statement

Compound | efficacy in clinical trial
N[C@@H](Cc1c[nH]c2ccc(O)cc12)C(=O)O [5-HTP, L-5-hydroxytryptophan] | equally effective
COCCCC/C(=N\OCCN)c1ccc(C(F)(F)F)cc1 [fluoxamine] | equally effective
